The test concerns Alternaria. Briefly: Total Alternaria polypeptides in nasal secretions of CRS patients before and after treatment (competitive immunoassay). The class given is in vivo, human. The following applies: nasal secretion supernatants, change from baseline after treatment, N=6, paired samples.

Molecules are shown by their SMILES.

Experimental: Nasal secretions were obtained under endoscopic guidance using a sterile sinus secretion collector (Xomed Surgical Produces, Jacksonville, Fla.) from CRS patients before and after treatment with either placebo or amphotericin B. Each secretion specimen was extracted by adding twice the volume of 0.9% NaCl, vortexing, and centrifugation. The supernatants were stored at −20° C. To monitor changes in fungal antigen burden with treatment, total Alternaria polypeptides in nasal secretions were immunochemically quantitated essentially as described for latex polypeptides. Briefly, samples and a standard extract from Alternaria alternata competed with solid-phase Alternaria alternata polypeptides for rabbit anti-Alternaria IgG antibodies (ALK-Abello, Round Rock, Tex.). Radiolabeled, affinity-purified, goat anti-rabbit IgG was used for detection. The results are expressed as mass polypeptide per mL nasal secretion supernatants. The detection limit of the assay was 12 ng/mL for total Alternaria polypeptides. Sufficient quantities of mucus were not available to perform all the assays for each patient. The analyses were performed based on the availability of paired samples.

`C[C@@H]1[C@H](O)[C@@H](C)/C=C/C=C/C=C/C=C/C=C/C=C/C=C/[C@H](O[C@@H]2O[C@H](C)[C@@H](O)[C@H](N)[C@@H]2O)C[C@@H]2O[C@](O)(C[C@@H](O)C[C@@H](O)[C@H](O)CC[C@@H](O)C[C@@H](O)CC(=O)O[C@H]1C)C[C@H](O)[C@H]2C(=O)O` [Amphotericin B, amphotericin B]: the “Alternaria μg/mL, median change after treatment” value is -0.30 µg/mL and the “Alternaria μg/mL, range for change after treatment” value is -4.64 to 3.21 µg/mL.
